The text below walks through data of ChEMBL document CHEMBL5634152, “The discovery of water-soluble indazole derivatives as potent microtubule polymerization inhibitors” (Eur J Med Chem, 2023).

In brackets after ≈: the same amount, converted by molar mass. Activity calls are given as the source filed them. No cut-off for these calls is given here.

As usually defined, the IC50 is the midpoint of a concentration-inhibition curve. What is called logP is a log measure of how a compound divides between an organic and an aqueous phase. A word on the solubility: it is how much of the substance goes into solution per volume.

One series deals with Huh-7. The experiment in a line: cells. Conditions: Homo sapiens.
Series [1] relates to A549. The experiment in a line: cells. The note with it: Homo sapiens.
Description: Antiproliferative activity against human A549 cells assessed as cell growth inhibition incubated for72 hrs by MTT assay
The test system of another series is T-24. The experiment in a line: cells. Conditions: Homo sapiens.
The target of a further series is Tubulin (Homo sapiens) (UniProt P68371+Q9H4B7+P0DPH7+P68366+Q13509+Q71U36+P04350+Q3ZCM7+P07437+P68363+Q9BQE3+Q6PEY2+Q13885+Q9BVA1+Q9BUF5). The experiment in a line: Binding affinity to tubulin polymerization at colchicine-binding site in human A549 cells assessed as N,N'-ethylene- bis(iodoacetamide)/beta-tubulin adduct formation at 5 to 25 uM incubated for 2 hrs by chemiluminescence based assay. The series is classed as cell-based. The note with it: dose 5-25 µM.

A short description of series [2]: Lipophilicity, logP of compound in n-octanol-water at 5 mg/ml incubated for 8 hrs by HPLC analysis. The series is classed as physicochemical.
A short description of series [3]: Resistance index, ratio of IC50 for human A549/Taxol cells to IC50 for human A549 cells. The series is classed as functional.
Series [4] is described as follows: Aqueous solubility of compound in pH 7.4 at 10 mg/ml by HPLC analysis. The format is physicochemical. Conditions: buffer, read-out: solubility.
The test system of the next series is A549/TR. The experiment in a line: Antiproliferative activity against human A549/Taxol cells assessed as cell growth inhibition incubated for72 hrs by MTT assay. The format is functional, cell-based.
Series [5] has as its system A549. The experiment in a line: Antitumor activity against human A549 cells xenografted in Balb/c nude mouse assessed as tumor growth inhibition at 25 mg/kg, IG qd for 21 days relative to control. Conditions: A549, po, 504 h, time 21 day, read-out: TGI. The series is classed as functional. Background: Xenograft models place foreign cells or tissue in a host animal.

Description for Huh-7: Antiproliferative activity against human Huh-7 cells assessed as cell growth inhibition incubated for72 hrs by MTT assay
Description for T-24: Antiproliferative activity against human T-24 cells assessed as cell growth inhibition incubated for72 hrs by MTT assay

As to `COc1cc(-n2ncc3ccc(-c4ccc5[nH]ccc5c4)cc32)cc(OC)c1OC`, the IC50 was 140 nM with Huh-7, 120 nM in the series on A549 [1] and 170 nM with T-24.
For `CC[C@]1(O)C[C@H]2CN(CCc3c([nH]c4ccccc34)[C@@](C(=O)OC)(c3cc4c(cc3OC)N(C=O)[C@H]3[C@@](O)(C(=O)OC)[C@H](OC(C)=O)[C@]5(CC)C=CCN6CC[C@]43[C@@H]65)C2)C1`, on Tubulin (Homo sapiens), the result was inactive.
Consider `COc1cc(-n2ncc3ccc(-c4cccc5[nH]ccc45)cc32)cc(OC)c1OC`, for which the IC50 came out at 28 nM with Huh-7, 25 nM with A549 [1], 30 nM in the series on T-24 and 25 nM in the series with A549/TR. This compound also had a log partition coefficient (logP) at 8 h in series [2] of 3.1. Moreover, the “Ratio IC50” value in [3] is 1. Further, the solubility in [4] was 5.09 µg/mL (≈ 12.7 µM).
As to `COc1cc(-n2nc(C)c3ccc(-c4ccc(C)cc4)cc32)cc(OC)c1OC`, the IC50 came to 120 nM in the series with Huh-7, 190 nM in the series on A549 [1] and 140 nM with T-24.
In the same order, the values of `COc1ccc(-n2ncc3ccc(-c4cc(OC)c(OC)c(OC)c4)cc32)cn1` are more than 25000 nM, more than 25000 nM and more than 25000 nM.
Regarding `COc1cc(-n2ncc3ccc(-c4ccc(F)cc4)cc32)cc(OC)c1OC`, the figures for the IC50 with Huh-7, with A549 [1] and with T-24 were 110 nM, 90 nM and 270 nM, respectively.
Consider `COc1ccc(-c2ccc3cnn(-c4cc(OC)c(OC)c(OC)c4)c3c2)cc1`, for which the IC50 in the series with Huh-7 turned out to be 100 nM; in the series with A549 [1], 92 nM; with T-24, 110 nM.
Turning to `COc1cc(-n2ncc3ccc(-c4ccccc4)cc32)cc(OC)c1OC`, the values for the IC50 with Huh-7, in the series on A549 [1] and with T-24 were 42 nM, 52 nM and 80 nM, respectively.
The matching figures for `COc1ccc(-n2ncc3ccc(-c4cc(OC)c(OC)c(OC)c4)cc32)cc1`: more than 25000 nM, more than 25000 nM and more than 25000 nM.
For the compound `COc1ccc(-c2ccc3c(C)nn(-c4cc(OC)c(OC)c(OC)c4)c3c2)cn1`, the IC50 with Huh-7 worked out at 1060 nM; in the series on A549 [1] it was 1510 nM; in the series with T-24 it was 2230 nM.
With `COc1cc(-n2ncc3ccc(-c4ccc(C)cc4)cc32)cc(OC)c1OC`, the IC50 worked out at 51 nM in the series with Huh-7, 45 nM with A549 [1] and 92 nM with T-24.
On to `COc1cc(-c2ccc3c(C)nn(-c4ccc(OC(F)(F)F)cc4)c3c2)cc(OC)c1OC`, for which the figures for the IC50 in the series on Huh-7, with A549 [1] and in the series with T-24 were more than 25000 nM, 19500 nM and more than 25000 nM, respectively.
Turning to `COc1cc(-n2ncc3ccc(-c4ccc5c(ccn5C)c4)cc32)cc(OC)c1OC`, the IC50 came out at 73 nM in the series with Huh-7, 63 nM in the series on A549 [1] and 120 nM in the series with T-24.
Consider `CCOc1ccc(-c2ccc3cnn(-c4cc(OC)c(OC)c(OC)c4)c3c2)cc1`, for which the figures for the IC50 in the series with Huh-7, in the series with A549 [1] and in the series with T-24 were 3730 nM, 1450 nM and 2280 nM, respectively.
In the case of `COc1ccc(-n2nc(C)c3ccc(-c4cc(OC)c(OC)c(OC)c4)cc32)cc1`, the IC50 in the series on Huh-7, with A549 [1] and with T-24 was more than 25000 nM in each case.
Regarding `CC(=O)O[C@H]1C(=O)[C@@]2(C)[C@H]([C@H](OC(=O)c3ccccc3)[C@]3(O)C[C@H](OC(=O)[C@H](O)[C@@H](NC(=O)c4ccccc4)c4ccccc4)C(C)=C1C3(C)C)[C@]1(OC(C)=O)CO[C@@H]1C[C@@H]2O` [PACLITAXEL], the “Ratio IC50” value in [3] came out at 403.8. Besides, in the series with A549/TR, the IC50 is 5650 nM.
Turning to `COc1ccc2c(Nc3cc(OC)c(OC)c(OC)c3)n[nH]c2c1`, the IC50 was determined as 54 nM with Huh-7, 60 nM in the series with A549 [1], 130 nM in the series with T-24 and 91 nM in the series on A549/TR. The inhibition in vivo at 25 mg/kg with A549 [5] was 47.8%. In series [2], this compound returned a logP at 8 h of 3.7. The “Ratio IC50” value in series [3] is 1.5. The solubility in series [4] is 3.48 µg/mL (≈ 10.6 µM).
Take `COc1ccc(-c2ccc3cnn(-c4cc(OC)c(OC)c(OC)c4)c3c2)cn1`: the figures for the IC50 with Huh-7, with A549 [1] and in the series with T-24 were 330 nM, 150 nM and 190 nM, respectively.
For the compound `COc1cc(-c2ccc3cnn(-c4ccc(C)cc4)c3c2)cc(OC)c1OC`, the IC50 in the series on Huh-7, in the series on A549 [1] and with T-24 was more than 25000 nM each time.
For the compound `COc1ccc(-n2nc(C)c3ccc(-c4cc(OC)c(OC)c(OC)c4)cc32)cn1`, the IC50 in the series on Huh-7, in the series with A549 [1] and in the series with T-24 was more than 25000 nM throughout.
With `COc1cc(-c2ccc3c(C)nn(-c4ccc5c(c4)CCO5)c3c2)cc(OC)c1OC`, the IC50 in the series on Huh-7 was determined as 1450 nM; in the series on A549 [1] it was 5300 nM; in the series with T-24, 4820 nM.
Regarding `COc1cc(-n2ncc3ccc(-c4ccncc4)cc32)cc(OC)c1OC`, the IC50 in the series on Huh-7 is 9220 nM; in the series with A549 [1], 15200 nM; in the series with T-24 it was 16400 nM.
As to `COc1cc2c(c(OC)c1OC)-c1ccc(OC)c(=O)cc1[C@@H](NC(C)=O)CC2` [COLCHICINE], the IC50 is 24 nM in the series with Huh-7 and 46 nM with T-24.
`COc1cc(-n2ncc3ccc(-c4ccc5c(c4)CCO5)cc32)cc(OC)c1OC`: the IC50 is 79 nM in the series with Huh-7, 98 nM in the series with A549 [1] and 110 nM in the series on T-24.
In the same order, the values of `COc1cc(-c2ccc3c(C)nn(-c4ccc(C)cc4)c3c2)cc(OC)c1OC` are more than 25000 nM, more than 25000 nM and more than 25000 nM.
For the compound `COc1cc(-n2ncc3ccc(-c4ccc(Cl)cc4)cc32)cc(OC)c1OC`, the figures for the IC50 in the series on Huh-7, in the series with A549 [1] and with T-24 were 150 nM, 200 nM and 320 nM, respectively.
Consider `COc1ccc(-c2ccc3c(C)nn(-c4cc(OC)c(OC)c(OC)c4)c3c2)cc1`, for which the IC50 in the series on Huh-7 is 110 nM; in the series with A549 [1] it was 490 nM; in the series on T-24, 280 nM.
